Assay results from patent US9907847B2, “Pyrrolopyrimidines as therapeutic agents for the treatment of diseases” (GlaxoSmithKline LLC, priority 2012, dated 2018).
Where a name gives a salt, the structure may show the parent alone.

Assays:
[1] = tested on: IFN-α; assay: Induction of interferon-α using fresh human whole blood (WB); format: cell-based; conditions: three donors, overnight incubation, response as % of 2 μM resiquimod control, read-out: mean pEC50 for IFN-α (converted)
Description: (§1) Assay for the Induction of Interferon-[…] and TNF-[…] Using Fresh Human Whole Blood (WB)
(§2) Compounds were prepared at 100× required concentration in DMSO in flat-bottom microtitre plates at a volume of 1.5 μL. Columns 1-10 contained a 1 in 4 serial dilution of the test compound. Included on each plate was a serial dilution of the TLR7/8 agonist resiquimod as a standard and Column 11 contained 1.5 μl of 200 μM resiquimod (giving a 2 μM final concentration, used to define the approximate maximal response to resiquimod). Each compound was assayed in duplicate for each donor.
(§3) Blood samples from three human donors were collected into sodium heparin (10 U/ml). 150 μl of whole Blood was dispensed into Col 1 to 11 of assay plates containing 1.5 μl of test compound or standard in DMSO. Plates were placed in an incubator overnight (37° C., 95% air, 5% CO2). Following the overnight incubation, plates were removed from the incubator & mixed on an orbital shaker for approximately 1 minute. 100 μl of 0.9% saline was added to each well and the plates mixed again on an orbital shaker. Plates were then centrifuged (2500 rpm, 10 mins), after which a sample of plasma was removed using a Biomek FX and assayed for both IFN-α and TNF-α using the MSD (Mesoscale Discovery) electrochemiluminescence assay platform. The IFN-α assay was carried out similarly to that described above. The TNF-α assay was carried out as per kit instructions (Cat No K111BHB).
(§4) Cytokine released was expressed as a percentage of the 2 μM resiquimod control (column 11). This percentage was plotted against compound concentration and the pEC50 for the response determined by non-linear least squares curve fitting. For the IFN-α responses, generally a 4 parameter logistic model was selected. For the TNF-α responses where a clear maximum response was obtained (i.e. a well defined plateau in the response was observed) then a 4 parameter model was generally used. If the upper asymptote of the curve wasn't well defined then the curve fitting was generally constrained to a maximal response of 100% (i.e. to the response to 2 μM resiquimod) or to the response of the highest concentration tested if this was greater than the resiquimod response. Some curves were bell shaped for one or both cytokines and the cytokine data on the down slope of the bell shaped response (i.e. concentrations above those giving the maximal response) were generally excluded from the fit, usually with the exception of the concentration immediately above the peak response. Curve fitting thus concentrated on the up slope of the dose response curve.

[2] = tested on: TNF-α; assay: Induction of TNF-α using fresh human whole blood (WB); format: cell-based; conditions: three donors, overnight incubation, response as % of 2 μM resiquimod control, read-out: mean pEC50 for TNF-α (converted)
Description: as §1, §2, §3, §4

| SMILES | EC50 [1] | EC50 [2] |
| --- | --- | --- |
| CCCCc1nc(N)c2[nH]cc(CCCCCCN3CCCCC3)c2n1 [Example 1, 2-Butyl-7-(6-(piperidin-1-yl)hexyl)-5H-pyrrolo[3,2-d]pyrimidin-4-amine formate] | ≤ 5.01 µM | ≥ 5.01 µM |
| CCCCc1nc(N)c2[nH]cc(CCCCCN3CCCCC3)c2n1 [Example 2, 2-Butyl-7-(5-(piperidin-1-yl)pentyl)-5H-pyrrolo[3,2-d]pyrimidin-4-amine] | ≤ 5.01 µM | ≥ 5.01 µM |
| CCCCc1nc(N)c2[nH]cc(CCCCN3CCCCC3)c2n1 [Example 3, 2-Butyl-7-(4-(piperidin-1-yl)butyl)-5H-pyrrolo[3,2-d]pyrimidin-4-amine] | ≤ 5.01 µM | ≥ 5.01 µM |
| CCOCc1nc(N)c2[nH]cc(CCCCCCN3CCCCC3)c2n1 [Example 4, 2-(Ethoxymethyl)-7-(6-(piperidin-1-yl)hexyl)-5H-pyrrolo[3,2-d]pyrimidin-4-amine] | ≤ 5.01 µM | ≥ 5.01 µM |
| COCCc1nc(N)c2[nH]cc(CCCCCCN3CCCCC3)c2n1 [Example 5, 2-(2-Methoxyethyl)-7-(6-(piperidin-1-yl)hexyl)-5H-pyrrolo[3,2-d]pyrimidin-4-amine hydrochloride] | ≤ 5.01 µM | ≥ 5.01 µM |
| CCCCc1nc(N)c2[nH]c(C)c(CCCCCCN3CCCCC3)c2n1 [Example 6, 2-Butyl-6-methyl-7-(6-(piperidin-1-yl)hexyl)-5H-pyrrolo[3,2-d]pyrimidin-4-amine] | ≤ 5.01 µM | ≥ 5.01 µM |
| CCCCc1nc(N)c2[nH]c(C)c(CCCCCN3CCCCC3)c2n1 [Example 7, 2-Butyl-6-methyl-7-(5-(piperidin-1-yl)pentyl)-5H-pyrrolo[3,2-d]pyrimidin-4-amine] | ≤ 5.01 µM | ≥ 5.01 µM |
| CCCCc1nc(N)c2[nH]c(C)c(CCCCN3CCCCC3)c2n1 [Example 8, 2-Butyl-6-methyl-7-(4-(piperidin-1-yl)butyl)-5H-pyrrolo[3,2-d]pyrimidin-4-amine] | ≤ 5.01 µM | ≥ 5.01 µM |
| CCCCc1nc(N)c2[nH]cc(CCCCCN3CCCC3)c2n1 [Example 9, 2-Butyl-7-(5-(pyrrolidin-1-yl)pentyl)-5H-pyrrolo[3,2-d]pyrimidin-4-amine formate] | ≤ 5.01 µM | ≥ 5.01 µM |
| CCCCc1nc(N)c2[nH]cc(CCCCCCN3CCCC3)c2n1 [Example 10, 2-Butyl-7-(6-(pyrrolidin-1-yl)hexyl)-5H-pyrrolo[3,2-d]pyrimidin-4-amine] | ≤ 5.01 µM | ≥ 5.01 µM |
| CCCCCc1nc(N)c2[nH]cc(CCCCCCN3CCCCC3)c2n1 [Example 11, 2-Pentyl-7-(6-(piperidin-1-yl)hexyl)-5H-pyrrolo[3,2-d]pyrimidin-4-amine] | ≤ 5.01 µM | ≥ 5.01 µM |
| CCCCc1nc(N)c2[nH]cc(CCCCCN3CCCCCC3)c2n1 [Example 12, 7-(5-(Azepan-1-yl)pentyl)-2-butyl-5H-pyrrolo[3,2-d]pyrimidin-4-amine] | ≤ 5.01 µM | ≥ 5.01 µM |
| CCCCc1nc(N)c2[nH]c(C)c(CCCCN3CCCCCC3)c2n1 [Example 13, 7-(4-(Azepan-1-yl)butyl)-2-butyl-6-methyl-5H-pyrrolo[3,2-d]pyrimidin-4-amine] | ≤ 5.01 µM | ≥ 5.01 µM |
| CCCCc1nc(N)c2[nH]c(C)c(CCCCCCN3CCCC3)c2n1 [Example 14, 2-Butyl-6-methyl-7-(6-(pyrrolidin-1-yl)hexyl)-5H-pyrrolo[3,2-d]pyrimidin-4-amine] | ≤ 5.01 µM | ≥ 5.01 µM |
| CCCCc1nc(N)c2[nH]c(C)c(CCCCCCN3CCC3)c2n1 [Example 15, 7-(6-(Azetidin-1-yl)hexyl)-2-butyl-6-methyl-5H-pyrrolo[3,2-d]pyrimidin-4-amine] | ≤ 5.01 µM | ≥ 5.01 µM |
| CCCCc1nc(N)c2[nH]c(C)c(CCCCCN3CCCC3)c2n1 [Example 16, 2-Butyl-6-methyl-7-(5-(pyrrolidin-1-yl)pentyl)-5H-pyrrolo[3,2-d]pyrimidin-4-amine] | ≤ 5.01 µM | ≥ 5.01 µM |
| CCCCc1nc(N)c2[nH]cc(CCCCCN3CCC3)c2n1 [Example 17, 7-(5-(Azetidin-1-yl)pentyl)-2-butyl-5H-pyrrolo[3,2-d]pyrimidin-4-amine] | ≤ 5.01 µM | ≥ 5.01 µM |

| SMILES | EC50 [1] | EC50 [2] |
| --- | --- | --- |
| CCCCc1nc(N)c2[nH]c(C)c(CCCCCN3CCC3)c2n1 [Example 18, 7-(5-(Azetidin-1-yl)pentyl)-2-butyl-6-methyl-5H-pyrrolo[3,2-d]pyrimidin-4-amine] | ≤ 5.01 µM | ≥ 5.01 µM |
| CCCCc1nc(N)c2[nH]c(C)c(CCCCN3CCCC3)c2n1 [Example 19, 2-Butyl-6-methyl-7-(4-(pyrrolidin-1-yl)butyl)-5H-pyrrolo[3,2-d]pyrimidin-4-amine] | ≤ 5.01 µM | ≥ 5.01 µM |
| CCCCc1nc(N)c2[nH]cc(CCCCCN3CCC(F)(F)CC3)c2n1 [Example 20, 2-Butyl-7-(5-(4,4-difluoropiperidin-1-yl)pentyl)-5H-pyrrolo[3,2-d]pyrimidin-4-amine] | ≤ 5.01 µM | ≥ 5.01 µM |
| CCCCc1nc(N)c2[nH]cc(CCCCCN3CCC(F)CC3)c2n1 [Example 21, 2-Butyl-7-(5-(4-fluoropiperidin-1-yl)pentyl)-5H-pyrrolo[3,2-d]pyrimidin-4-amine] | ≤ 5.01 µM | ≥ 5.01 µM |
| COCCc1nc(N)c2[nH]cc(CCCCCN3CCC(F)CC3)c2n1 [Example 22, 7-(5-(4-Fluoropiperidin-1-yl)pentyl)-2-(2-methoxyethyl)-5H-pyrrolo[3,2-d]pyrimidin-4-amine] | ≤ 5.01 µM | ≥ 5.01 µM |
| CCCCc1nc(N)c2[nH]cc(CCCCCN3CCC(O)CC3)c2n1 [Example 23, 1-(5-(4-Amino-2-butyl-5H-pyrrolo[3,2-d]pyrimidin-7-yl)pentyl)piperidin-4-ol] | ≤ 5.01 µM | ≥ 5.01 µM |
| CCCCc1nc(N)c2[nH]cc(CCCCCN3CC[C@@H](F)C3)c2n1 [Example 24, (R)-2-Butyl-7-(5-(3-fluoropyrrolidin-1-yl)pentyl)-5H-pyrrolo[3,2-d]pyrimidin-4-amine] | ≤ 5.01 µM | ≥ 5.01 µM |
| CCCCc1nc(N)c2[nH]cc(CCCCCN3CC[C@H](F)C3)c2n1 [Example 25, (S)-2-Butyl-7-(5-(3-fluoropyrrolidin-1-yl)pentyl)-5H-pyrrolo[3,2-d]pyrimidin-4-amine] | ≤ 5.01 µM | ≥ 5.01 µM |
| COCCc1nc(N)c2[nH]cc(CCCCCN3CC[C@@H](F)C3)c2n1 [Example 26, (R)-7-(5-(3-Fluoropyrrolidin-1-yl)pentyl)-2-(2-methoxyethyl)-5H-pyrrolo[3,2-d]pyrimidin-4-amine formate] | ≤ 5.01 µM | ≥ 5.01 µM |
| COCCc1nc(N)c2[nH]cc(CCCCCN3CC[C@H](F)C3)c2n1 [Example 27, (S)-7-(5-(3-Fluoropyrrolidin-1-yl)pentyl)-2-(2-methoxyethyl)-5H-pyrrolo[3,2-d]pyrimidin-4-amine formate] | ≤ 5.01 µM | ≥ 5.01 µM |
| CCCCc1nc(N)c2[nH]cc(CCCCCN3CC[C@H](O)C3)c2n1 [Example 28, (S)-1-(5-(4-Amino-2-butyl-5H-pyrrolo[3,2-d]pyrimidin-7-yl)pentyl)pyrrolidin-3-ol] | ≤ 5.01 µM | ≥ 5.01 µM |
| CCCCc1nc(N)c2[nH]cc(CCCCCN3CC(O)C3)c2n1 [Example 29, 1-(5-(4-Amino-2-butyl-5H-pyrrolo[3,2-d]pyrimidin-7-yl)pentyl)azetidin-3-ol formate] | ≤ 5.01 µM | ≥ 5.01 µM |
| COCCc1nc(N)c2[nH]cc(CCCCCCN3CCCCCC3)c2n1 [Example 30, 7-(6-(Azepan-1-yl)hexyl)-2-(2-methoxyethyl)-5H-pyrrolo[3,2-d]pyrimidin-4-amine] | ≤ 5.01 µM | ≥ 5.01 µM |
| CCCCc1nc(N)c2[nH]cc(CCCCCCN3CCC(F)CC3)c2n1 [Example 31, 2-Butyl-7-(6-(4-fluoropiperidin-1-yl)hexyl)-5H-pyrrolo[3,2-d]pyrimidin-4-amine] | ≤ 5.01 µM | ≥ 5.01 µM |
| CCCCc1nc(N)c2[nH]cc(CCCCCCN3CC[C@@H](F)C3)c2n1 [Example 32, (R)-2-Butyl-7-(6-(3-fluoropyrrolidin-1-yl)hexyl)-5H-pyrrolo[3,2-d]pyrimidin-4-amine] | ≤ 5.01 µM | ≥ 5.01 µM |
| CCCCc1nc(N)c2[nH]cc(CCCCCCN3CC[C@H](F)C3)c2n1 [Example 33, (S)-2-Butyl-7-(6-(3-fluoropyrrolidin-1-yl)hexyl)-5H-pyrrolo[3,2-d]pyrimidin-4-amine] | ≤ 5.01 µM | ≥ 5.01 µM |
